Results reported in US3932512A, “Antiviral 1,2,3,4-tetrahydro-1,-alkano naphthalenamine derivatives” (priority 1972, dated 1976).
Where two headings read alike, the source gives them in different places.

How the values were obtained:
influenza viruses = assay: relative antiviral activity in vitro; format: cell-based; settings: words
Influenza A2 /Aichi/3/68 = assay: in vitro anti-myxovirus activity, influenza A2 /Aichi/3/68, G-2 cells (% inhibition of hemadsorption); format: cell-based, Influenza A2 /Aichi/3/68 (human); settings: for inhibition at 40 µg/mL: 40 μg/ml; for inhibition at 30 µg/mL / inhibition at 50 µg/mL / inhibition at 60 µg/mL / inhibition at 70 µg/mL / inhibition at 80 µg/mL / inhibition at 90 µg/mL / inhibition at 100 µg/mL: Homo sapiens; for inhibition at 30 µg/mL: 30 μg/ml; for inhibition at 50 µg/mL: 50 μg/ml; for inhibition at 60 µg/mL: 60 μg/ml; for inhibition at 70 µg/mL: 70 μg/ml; for inhibition at 80 µg/mL: 80 μg/ml; for inhibition at 90 µg/mL: 90 μg/ml; for inhibition at 100 µg/mL: 100 μg/ml, read-out: % Inhibition
[1] = cytotoxicity in G-2 cells; format: cell-based; settings: human
Procedure: In preparing the compounds for testing, they were handled aseptically throughout. The compounds were dissolved in a minimum amount of a suitable solvent and the final dilutions were made up to the required volume in a complete culture medium used in assay and in concentration not exceeding the predetermined maximum non-toxic levels.
The cell culture used in all primary in vitro anti-myxovirus assays was an established cell line of the human conjunctiva (G-2 cells). The cytotoxic studies of each of the compounds were performed prior to testing for antiviral activity to determine level of response of the cells to the potentially toxic action of the compounds.

Influenza (swine) = assay: cells; format: cell-based
[2] = toxicity of in vitro active anti-myxovirus compounds in mice; settings: mouse, in vivo
mice = assay: as above
[3] = tested on: influenza A2 virus Aichi/2/68; assay: preventive control of influenza A2 in mice, compound I at different levels; format: in vivo, influenza A2 virus Aichi/2/68 (in Charles River white mice)
Procedure: In the following experiment, compound I was tested at different levels for preventive control of influenza as follows:
Charles River white mice, starting weight: 10-12 g;
12 mice per group (24 mice as control).
Virus: Mice were inoculated intranasally with influenza
A2 virus Aichi/2/68, with a titer of 2,88 LD50,
Mice were divided into 5 groups and received
day intraperitoneally, once a day for 16 days
beginning one day prior to infection with the
virus. Mice were weighed each day before inocula-
tions and doses adjusted according to the actual
weight of each animal. The active compound was
suspended in phosphate buffered saline.

[4] = 100 mg/kg, day 10 postinfection
[5] = 100 mg/kg, day 11 postinfection
[6] = 100 mg/kg, day 12 postinfection
[7] = 100 mg/kg, day 13 postinfection
[8] = 100 mg/kg, day 14 postinfection

In the case of `C[C@@H]1[C@H](N)[C@H]2C[C@@H]1c1ccccc12` (relative stereo) [IV, 1,2,3,4-tetrahydro-1,4-methanonaphthalen-endo-3-methyl-endo-2-amine], the relative antiviral activity (influenza viruses) is reported as “relatively low antiviral activity”.

`N[C@H]1C[C@@H]2C[C@H]1c1ccccc12` (relative stereo) [Compound I] gave an inhibition at 40 µg/mL (Influenza A2 /Aichi/3/68; 17.8 TCID50) of 13%, an inhibition at 40 µg/mL (Influenza A2 /Aichi/3/68; 178 TCID50) of 0% and an inhibition at 30 µg/mL (Influenza A2 /Aichi/3/68; 17.8 TCID50) of 0%. The inhibition at 30 µg/mL (Influenza A2 /Aichi/3/68; 178 TCID50) was 0%, the inhibition at 50 µg/mL (Influenza A2 /Aichi/3/68; 17.8 TCID50) was 30% and the inhibition at 50 µg/mL (Influenza A2 /Aichi/3/68; 178 TCID50) was 10%. The inhibition at 60 µg/mL (Influenza A2 /Aichi/3/68; 17.8 TCID50) was 87%, the inhibition at 60 µg/mL (Influenza A2 /Aichi/3/68; 178 TCID50) was 37% and the inhibition at 70 µg/mL (Influenza A2 /Aichi/3/68; 17.8 TCID50) was 90%. For the same compound, the inhibition at 70 µg/mL (Influenza A2 /Aichi/3/68; 178 TCID50) was 53%, the inhibition at 80 µg/mL (Influenza A2 /Aichi/3/68; 17.8 TCID50) was 97% and the inhibition at 80 µg/mL (Influenza A2 /Aichi/3/68; 178 TCID50) was 77%. It also gave an inhibition at 90 µg/mL (Influenza A2 /Aichi/3/68; 17.8 TCID50) of 97%, an inhibition at 90 µg/mL (Influenza A2 /Aichi/3/68; 178 TCID50) of 80% and an inhibition at 100 µg/mL (Influenza A2 /Aichi/3/68; 17.8 TCID50) of 97%. The inhibition at 100 µg/mL (Influenza A2 /Aichi/3/68; 178 TCID50) was 90%, the CC50 ([1]; 50% inhibition of cell growth, read-out: Cytotoxicity CTD50) was greater than 100 µg/mL and the MNTC ([1]; maximal non-toxic concentration, read-out: Cytotoxicity CTD0) was greater than 100 µg/mL. For the same compound, the inhibition at 40 µg/mL (Influenza (swine); 40 μg/ml) was 0%, the “% Inhibition” value (Influenza (swine); 50 μg/ml, listed as 1,2,3,4-TETRAHYDRO-1,4-[…]-ENDO-2-AMINE.HCl) was 7% and the inhibition at 80 µg/mL (Influenza (swine); 80 μg/ml) was 90%. The inhibition at 90 µg/mL (Influenza (swine); 90 μg/ml) was 97%, the inhibition at 100 µg/mL (Influenza (swine); 100 μg/ml) was 100% and the MTD [2] was no more than 100 mg/kg. The LD50 ([2]; ip, 50% toxic dose LD50, acute, I/P, acute) was 100 mg/kg, the LD50 ([2]; ip, 50% toxic dose LD50, subacute, I/P, subacute) was 100 mg/kg and the LD50 ([2]; po, 50% toxic dose LD50, acute, P/O, acute) was 275 mg/kg. For the same compound, the LD50 ([2]; po, 50% toxic dose LD50, subacute, P/O, subacute) was 250 to 275 mg/kg, the “Maximal non-toxic dose LD0, acute” value (mice; I/P) was 125 mg/kg and the “Maximal non-toxic dose LD0, subacute” value (mice; I/P) was 100 mg/kg. The “Maximal non-toxic dose LD0, acute” value (mice; P/O) was 250 mg/kg, the “Maximal non-toxic dose LD0, subacute” value (mice; P/O) was 225 mg/kg and the Survivors % ([3]; 40 mg/kg) was 8.3%. The “Survivors S/T” value ([3]; 40 mg/kg) was 1/12, the Cumulative mortality % ([3]; 40 mg/kg, day 8 postinfection) was 8.3% and the “Cumulative mortality N” value ([3]; 40 mg/kg, day 8 postinfection) was 1. The Cumulative mortality % ([3]; 40 mg/kg, day 9 postinfection) was 41.7%, the “Cumulative mortality N” value ([3]; 40 mg/kg, day 9 postinfection) was 5 and the Cumulative mortality % ([3]; 40 mg/kg, day 10 postinfection) was 58.3%. The “Cumulative mortality N” value ([3]; 40 mg/kg, day 10 postinfection) was 7, the Cumulative mortality % ([3]; 40 mg/kg, day 11 postinfection) was 75.0% and the “Cumulative mortality N” value ([3]; 40 mg/kg, day 11 postinfection) was 9. For the same compound, the Cumulative mortality % ([3]; 40 mg/kg, day 12 postinfection) was 83.3%, the “Cumulative mortality N” value ([3]; 40 mg/kg, day 12 postinfection) was 10 and the Cumulative mortality % ([3]; 40 mg/kg, day 13 postinfection) was 91.6%. For the same compound, the “Cumulative mortality N” value ([3]; 40 mg/kg, day 13 postinfection) was 11, the Cumulative mortality % ([3]; 40 mg/kg, day 14 postinfection) was 91.6% and the “Cumulative mortality N” value ([3]; 40 mg/kg, day 14 postinfection) was 11. For the same compound, the Survivors % ([3]; 55 mg/kg) was 8.3%, the “Survivors S/T” value ([3]; 55 mg/kg) was 1/12 and the Cumulative mortality % ([3]; 55 mg/kg, day 8 postinfection) was 8.3%. The “Cumulative mortality N” value ([3]; 55 mg/kg, day 8 postinfection) was 1, the Cumulative mortality % ([3]; 55 mg/kg, day 9 postinfection) was 16.7% and the “Cumulative mortality N” value ([3]; 55 mg/kg, day 9 postinfection) was 2. The Cumulative mortality % ([3]; 55 mg/kg, day 10 postinfection) was 41.7%, the “Cumulative mortality N” value ([3]; 55 mg/kg, day 10 postinfection) was 5 and the Cumulative mortality % ([3]; 55 mg/kg, day 11 postinfection) was 58.3%. For the same compound, the “Cumulative mortality N” value ([3]; 55 mg/kg, day 11 postinfection) was 7, the Cumulative mortality % ([3]; 55 mg/kg, day 12 postinfection) was 75.0% and the “Cumulative mortality N” value ([3]; 55 mg/kg, day 12 postinfection) was 9. The Cumulative mortality % ([3]; 55 mg/kg, day 13 postinfection) was 91.6%, the “Cumulative mortality N” value ([3]; 55 mg/kg, day 13 postinfection) was 11 and the Cumulative mortality % ([3]; 55 mg/kg, day 14 postinfection) was 91.6%. The “Cumulative mortality N” value ([3]; 55 mg/kg, day 14 postinfection) was 11, the Survivors % ([3]; 70 mg/kg) was 50.0% and the “Survivors S/T” value ([3]; 70 mg/kg) was 6/12. For the same compound, the Cumulative mortality % ([3]; 70 mg/kg, day 8 postinfection) was 8.3%, the “Cumulative mortality N” value ([3]; 70 mg/kg, day 8 postinfection) was 1 and the Cumulative mortality % ([3]; 70 mg/kg, day 9 postinfection) was 8.3%. The “Cumulative mortality N” value ([3]; 70 mg/kg, day 9 postinfection) was 1, the Cumulative mortality % ([3]; 70 mg/kg, day 10 postinfection) was 41.7% and the “Cumulative mortality N” value ([3]; 70 mg/kg, day 10 postinfection) was 5. The Cumulative mortality % ([3]; 70 mg/kg, day 11 postinfection) was 50.0%, the “Cumulative mortality N” value ([3]; 70 mg/kg, day 11 postinfection) was 6 and the Cumulative mortality % ([3]; 70 mg/kg, day 12 postinfection) was 50.0%. For the same compound, the “Cumulative mortality N” value ([3]; 70 mg/kg, day 12 postinfection) was 6, the Cumulative mortality % ([3]; 70 mg/kg, day 13 postinfection) was 50.0% and the “Cumulative mortality N” value ([3]; 70 mg/kg, day 13 postinfection) was 6. The Cumulative mortality % ([3]; 70 mg/kg, day 14 postinfection) was 50.0%, the “Cumulative mortality N” value ([3]; 70 mg/kg, day 14 postinfection) was 6 and the Survivors % ([3]; 85 mg/kg) was 50.0%. The “Survivors S/T” value ([3]; 85 mg/kg) was 6/12, the Cumulative mortality % ([3]; 85 mg/kg, day 8 postinfection) was 0% and the “Cumulative mortality N” value ([3]; 85 mg/kg, day 8 postinfection) was 0. The Cumulative mortality % ([3]; 85 mg/kg, day 9 postinfection) was 8.3%, the “Cumulative mortality N” value ([3]; 85 mg/kg, day 9 postinfection) was 1 and the Cumulative mortality % ([3]; 85 mg/kg, day 10 postinfection) was 25.0%. The “Cumulative mortality N” value ([3]; 85 mg/kg, day 10 postinfection) was 3, the Cumulative mortality % ([3]; 85 mg/kg, day 11 postinfection) was 33.3% and the “Cumulative mortality N” value ([3]; 85 mg/kg, day 11 postinfection) was 4. The Cumulative mortality % ([3]; 85 mg/kg, day 12 postinfection) was 50.0%, the “Cumulative mortality N” value ([3]; 85 mg/kg, day 12 postinfection) was 6 and the Cumulative mortality % ([3]; 85 mg/kg, day 13 postinfection) was 50.0%. For the same compound, the “Cumulative mortality N” value ([3]; 85 mg/kg, day 13 postinfection) was 6, the Cumulative mortality % ([3]; 85 mg/kg, day 14 postinfection) was 50.0% and the “Cumulative mortality N” value ([3]; 85 mg/kg, day 14 postinfection) was 6. For the same compound, the Survivors % ([3]; 100 mg/kg) was 66.4%, the “Survivors S/T” value ([3]; 100 mg/kg) was 8/12 and the Cumulative mortality % ([3]; 100 mg/kg, day 8 postinfection) was 0%. For the same compound, the “Cumulative mortality N” value ([3]; 100 mg/kg, day 8 postinfection) was 0, the Cumulative mortality % ([3]; 100 mg/kg, day 9 postinfection) was 0% and the “Cumulative mortality N” value ([3]; 100 mg/kg, day 9 postinfection) was 0. For the same compound, the Cumulative mortality % [3, 4] was 16.7%, the “Cumulative mortality N” value [3, 4] was 2 and the Cumulative mortality % [3, 5] was 25.0%. The “Cumulative mortality N” value [3, 5] was 3, the Cumulative mortality % [3, 6] was 33.3% and the “Cumulative mortality N” value [3, 6] was 4. For the same compound, the Cumulative mortality % [3, 7] was 33.3%, the “Cumulative mortality N” value [3, 7] was 4 and the Cumulative mortality % [3, 8] was 33.3%. The “Cumulative mortality N” value [3, 8] was 4.
